Several values for one entry are separate records, joined by “and”; a condition that tells them apart may be missing. Identical values can stand only once. Toxic doses and inconclusive results are not listed. No stated cut-off is given here; in the data, active means T/C of 150% or more; inactive means T/C below 125%.
Tested on: L1210 leukemia ip in BDF1 mice, survival T/C
Experiment: NCI In Vivo Anticancer Drug Screen. Data for tumor model L1210 Leukemia (intraperitoneal) in B6D2F1 (BDF1) mice
Conditions: higher = longer survival
Procedure, shortened: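 Each compound was tested against a transplantable tumor grown in mice. The endpoint was survival, with treated animals benchmarked against vehicle controls as a simple ratio.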

[1] = endpoint: mean survival time, dose: 50.0 mg/kg/injection, schedule: Q01DX009 (ip), vehicle: Klucel (hydroxypropylcellulose) (HPC)
[2] = endpoint: mean survival time, dose: 100.0 mg/kg/injection, schedule: Q01DX009 (ip), vehicle: Klucel (hydroxypropylcellulose) (HPC)
[3] = endpoint: mean survival time, dose: 100.0 mg/kg/injection, schedule: Q04DX003 (ip), vehicle: Klucel (hydroxypropylcellulose) (HPC)
[4] = endpoint: mean survival time, dose: 25.0 mg/kg/injection, schedule: Q01DX009 (ip), vehicle: saline
[5] = endpoint: mean survival time, dose: 200.0 mg/kg/injection, schedule: Q01DX009 (ip), vehicle: Klucel (hydroxypropylcellulose) (HPC)
[6] = endpoint: mean survival time, dose: 200.0 mg/kg/injection, schedule: Q04DX003 (ip), vehicle: Klucel (hydroxypropylcellulose) (HPC)
[7] = endpoint: mean survival time, dose: 400.0 mg/kg/injection, schedule: Q04DX003 (ip), vehicle: Klucel (hydroxypropylcellulose) (HPC)
[8] = endpoint: mean survival time, dose: 50.0 mg/kg/injection, schedule: Q01DX009 (ip), vehicle: saline
[9] = endpoint: mean survival time, dose: 100.0 mg/kg/injection, schedule: Q01DX009 (ip), vehicle: saline
[10] = endpoint: mean survival time, dose: 100.0 mg/kg/injection, schedule: Q04DX003 (ip), vehicle: saline with Tween-80
[11] = endpoint: mean survival time, dose: 200.0 mg/kg/injection, schedule: Q04DX003 (ip), vehicle: saline with Tween-80
[12] = endpoint: mean survival time, dose: 400.0 mg/kg/injection, schedule: Q04DX003 (ip), vehicle: saline with Tween-80

Measured: T/C

OC(CCN1CCCC1)(c1ccccc1)C1CCCCC1 (stereo not given)
inactive: endpoint: mean survival time, dose: 6.25 mg/kg/injection, schedule: Q01DX009 (ip), vehicle: Klucel (hydroxypropylcellulose) (HPC) 104 % of control and 108 % of control | endpoint: mean survival time, dose: 12.5 mg/kg/injection, schedule: Q01DX009 (ip), vehicle: Klucel (hydroxypropylcellulose) (HPC) 95 % of control and 97 % of control and 102 % of control | endpoint: mean survival time, dose: 25.0 mg/kg/injection, schedule: Q01DX009 (ip), vehicle: Klucel (hydroxypropylcellulose) (HPC) 103 % of control and 105 % of control | endpoint: mean survival time, dose: 25.0 mg/kg/injection, schedule: Q04DX003 (ip), vehicle: Klucel (hydroxypropylcellulose) (HPC) 111 % of control | [1] 100 % of control and 106 % of control (2×) | endpoint: mean survival time, dose: 50.0 mg/kg/injection, schedule: Q04DX003 (ip), vehicle: Klucel (hydroxypropylcellulose) (HPC) 101 % of control | [2] 103 % of control and 91 % of control | [3] 92 % of control | endpoint: median survival time, dose: 12.5 mg/kg/injection, schedule: Q01DX009 (ip), vehicle: Klucel (hydroxypropylcellulose) (HPC) 96 % of control | endpoint: median survival time, dose: 25.0 mg/kg/injection, schedule: Q01DX009 (ip), vehicle: Klucel (hydroxypropylcellulose) (HPC) 106 % of control | endpoint: median survival time, dose: 50.0 mg/kg/injection, schedule: Q01DX009 (ip), vehicle: Klucel (hydroxypropylcellulose) (HPC) 103 % of control | endpoint: median survival time, dose: 100.0 mg/kg/injection, schedule: Q01DX009 (ip), vehicle: Klucel (hydroxypropylcellulose) (HPC) 102 % of control

NC(CO)Cc1ccccc1 (stereo not given)
inactive: endpoint: mean survival time, dose: 6.25 mg/kg/injection, schedule: Q01DX009 (ip), vehicle: saline 107 % of control | endpoint: mean survival time, dose: 6.25 mg/kg/injection, schedule: Q04DX003 (ip), vehicle: saline 100 % of control | endpoint: mean survival time, dose: 12.5 mg/kg/injection, schedule: Q01DX009 (ip), vehicle: saline 96 % of control | endpoint: mean survival time, dose: 12.5 mg/kg/injection, schedule: Q04DX003 (ip), vehicle: saline 93 % of control | [4] 102 % of control | endpoint: mean survival time, dose: 25.0 mg/kg/injection, schedule: Q04DX003 (ip), vehicle: saline 105 % of control | endpoint: mean survival time, dose: 35.0 mg/kg/injection, schedule: Q01DX009 (ip), vehicle: saline 88 % of control | endpoint: mean survival time, dose: 55.0 mg/kg/injection, schedule: Q01DX009 (ip), vehicle: saline 98 % of control | endpoint: mean survival time, dose: 75.0 mg/kg/injection, schedule: Q01DX001 (ip), vehicle: carboxymethylcellulose (CMC) 86 % of control | endpoint: mean survival time, dose: 80.0 mg/kg/injection, schedule: Q01DX009 (ip), vehicle: saline 96 % of control and 98 % of control | endpoint: mean survival time, dose: 120.0 mg/kg/injection, schedule: Q01DX009 (ip), vehicle: saline 103 % of control | endpoint: mean survival time, dose: 150.0 mg/kg/injection, schedule: Q01DX001 (ip), vehicle: carboxymethylcellulose (CMC) 91 % of control | endpoint: mean survival time, dose: 180.0 mg/kg/injection, schedule: Q01DX009 (ip), vehicle: saline 121 % of control | endpoint: mean survival time, dose: 300.0 mg/kg/injection, schedule: Q01DX001 (ip), vehicle: carboxymethylcellulose (CMC) 88 % of control

CS(=O)(=O)Oc1c(Cl)cc(Cl)c2ccccc12
inactive: endpoint: mean survival time, dose: 100.0 mg/kg/injection, schedule: Q01DX001 (ip), vehicle: saline 98 % of control | endpoint: mean survival time, dose: 200.0 mg/kg/injection, schedule: Q01DX001 (ip), vehicle: saline 92 % of control | endpoint: mean survival time, dose: 400.0 mg/kg/injection, schedule: Q01DX001 (ip), vehicle: saline 101 % of control

O=[N+]([O-])/C=C/c1ccc2ccccc2c1
inactive: endpoint: mean survival time, dose: 12.5 mg/kg/injection, schedule: Q01DX009 (ip), vehicle: carboxymethylcellulose (CMC) 104 % of control | endpoint: mean survival time, dose: 25.0 mg/kg/injection, schedule: Q01DX009 (ip), vehicle: carboxymethylcellulose (CMC) 101 % of control | [1] 107 % of control | endpoint: mean survival time, dose: 50.0 mg/kg/injection, schedule: Q01DX009 (ip), vehicle: carboxymethylcellulose (CMC) 100 % of control | endpoint: mean survival time, dose: 100.0 mg/kg/injection, schedule: Q01DX001 (ip), vehicle: other 100 % of control | [2] 104 % of control | endpoint: mean survival time, dose: 100.0 mg/kg/injection, schedule: Q01DX009 (ip), vehicle: carboxymethylcellulose (CMC) 101 % of control | endpoint: mean survival time, dose: 200.0 mg/kg/injection, schedule: Q01DX001 (ip), vehicle: other 91 % of control | [5] 93 % of control | endpoint: mean survival time, dose: 400.0 mg/kg/injection, schedule: Q01DX001 (ip), vehicle: other 96 % of control

Nc1ccc(CCc2nc(N)nc(N)c2-c2ccc(Cl)cc2)cc1
inactive: [3] 106 % of control | [6] 104 % of control | [7] 101 % of control

CN1CCN(C(=O)Nc2cccc(Cl)c2Cl)CC1
inactive: [4] 92 % of control | [8] 87 % of control | [9] 97 % of control and 102 % of control

O=C(OCC1CCCO1)c1ccccc1O (stereo not given)
inactive: [3] 100 % of control | [6] 100 % of control | [7] 95 % of control

CC(=O)OCC(CCn1ccc(=O)[nH]c1=O)COC(C)=O
inactive: endpoint: mean survival time, dose: 100.0 mg/kg/injection, schedule: Q01DX009 (ip), vehicle: saline with Tween-80 93 % of control | [10] 100 % of control | endpoint: mean survival time, dose: 200.0 mg/kg/injection, schedule: Q01DX009 (ip), vehicle: saline with Tween-80 95 % of control | [11] 105 % of control | endpoint: mean survival time, dose: 400.0 mg/kg/injection, schedule: Q01DX009 (ip), vehicle: saline with Tween-80 100 % of control | [12] 106 % of control

CCOc1ccc(-n2c(=O)c(N=Nc3ccc(Br)cc3)c(O)n(-c3ccc(C)cc3)c2=S)cc1
inactive: endpoint: mean survival time, dose: 50.0 mg/kg/injection, schedule: Q01DX001 (ip), vehicle: Klucel (hydroxypropylcellulose) (HPC) 95 % of control | endpoint: mean survival time, dose: 100.0 mg/kg/injection, schedule: Q01DX001 (ip), vehicle: Klucel (hydroxypropylcellulose) (HPC) 101 % of control | endpoint: mean survival time, dose: 200.0 mg/kg/injection, schedule: Q01DX001 (ip), vehicle: Klucel (hydroxypropylcellulose) (HPC) 101 % of control

Cc1ccc(NNC(=O)C(O)C(O)C(O)C(O)CO)cc1 (stereo not given)
inactive: [8] 92 % of control | [9] 96 % of control | endpoint: mean survival time, dose: 200.0 mg/kg/injection, schedule: Q01DX009 (ip), vehicle: saline 100 % of control

CNS(=O)(=O)c1cc(C)ccc1C
inactive: [2] 94 % of control | [5] 95 % of control | endpoint: mean survival time, dose: 400.0 mg/kg/injection, schedule: Q01DX009 (ip), vehicle: Klucel (hydroxypropylcellulose) (HPC) 100 % of control

NNc1c2ccccc2nc2ccccc12
inactive: endpoint: mean survival time, dose: 0.5 mg/kg/injection, schedule: Q04DX003 (ip), vehicle: Klucel (hydroxypropylcellulose) (HPC) 103 % of control | endpoint: mean survival time, dose: 1.0 mg/kg/injection, schedule: Q04DX003 (ip), vehicle: Klucel (hydroxypropylcellulose) (HPC) 100 % of control | endpoint: mean survival time, dose: 2.0 mg/kg/injection, schedule: Q04DX003 (ip), vehicle: Klucel (hydroxypropylcellulose) (HPC) 95 % of control

CCCCCCCCNc1ccc(Cl)cc1
inactive: endpoint: mean survival time, dose: 100.0 mg/kg/injection, schedule: Q01DX001 (ip), vehicle: saline + alcohol 91 % of control | endpoint: mean survival time, dose: 200.0 mg/kg/injection, schedule: Q01DX001 (ip), vehicle: saline + alcohol 102 % of control | endpoint: mean survival time, dose: 400.0 mg/kg/injection, schedule: Q01DX001 (ip), vehicle: saline + alcohol 98 % of control

Nc1cc(SC(c2ccccc2)c2ccccc2)c([N+](=O)[O-])c(N)n1
inactive: endpoint: mean survival time, dose: 100.0 mg/kg/injection, schedule: Q01DX001 (ip), vehicle: saline with Tween-80 92 % of control | endpoint: mean survival time, dose: 200.0 mg/kg/injection, schedule: Q01DX001 (ip), vehicle: saline with Tween-80 101 % of control | endpoint: mean survival time, dose: 400.0 mg/kg/injection, schedule: Q01DX001 (ip), vehicle: saline with Tween-80 95 % of control

O=c1[nH]nnc2[nH]ncc12
inactive: [10] 102 % of control | [11] 104 % of control | [12] 98 % of control

From PubChem BioAssay AID248 (DTP/NCI, 2004)
